Here are results for one compound from patent EP2218441A1, “Methods for the prevention and/or treatment of age spots” (Rahn Ag, priority 2009, dated 2010).

The experiment has as its system human keratinocytes (NHKs). Put plainly: Lipofuscin autofluorescence in human keratinocytes under H2O2 oxidative stress, normalized to total protein. It is filed as cell-based. The note with it: Keratinocyte, 48 h, 0.5 µg/ml oleuropein for 24 h before and 2 days after the stress, 1 mM H2O2 for 20 minutes, measured 2 days after oxidative stress, read-out: decrease of lipofuscin formation, as compared to untreated H2O2- exposed cells. Here is the method: Because there is no specific lipofuscin antibody and its composition varies between different cell types, lipofuscin autofluorescence is the most widely used method for its detection and quantification. In order to evaluate the effect of oleuropein on lipofuscin formation in oxidatively stressed cells, lipofuscin accumulation was measured by autofluorescence, after induction of oxidative stress to human keratinocytes, treated or not with oleuropein.
After 24h incubation with oleuropein, the cells were treated with 1mM H2O2 for 20 minutes. After a recovery time of 2, 4 or 7 days, representative pictures of cells were taken and lipofuscin amount was quantified by autofluorescence measurement. […]
After 2, 4 and 7 days, respectively, representative pictures of the cells were taken, and lipofuscin autofluorescence was measured.
The total protein content was determined at each time-point for data normalization purposes. […]
The autofluorescence of lipofuscin was detected at wavenlengths of 570-605nm after an excitation at 366nm, using a fluorometer (Vistor2TM, PerkinElmer, Belgium).
For each condition tested, the quantity of autofluorescent lipofuscin was normalized to the amount of total proteins. […] The dosage of proteins was performed following the Bradford method, based on the detection of the absorbance of Coomassie Blue (Coomassie Protein Assay Kit, Pierce, USA). […]

`C/C=C1/[C@H](O[C@@H]2O[C@H](CO)[C@@H](O)[C@H](O)[C@H]2O)OC=C(C(=O)OC)[C@H]1CC(=O)OCCc1ccc(O)c(O)c1` [oleuropein, Oleuropein]: the inhibition at 0.5 µg/mL was 13%.
